Values joined by “and” are separate entries in the source; they are usually repeats but may differ in a detail not shown here. Equal entries are not always repeated.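 Dose response: 5 concentrations. Exposure: 48 h. Format: 96-well plates. Endpoint: linear interpolation; highest concentration if not reached. GI50 marks 50% less growth. TGI is the concentration that stops growth completely.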
Experiments:
Assay in all cases: NCI-60 cell line screen, 48 h
A498 renal = system: A498 renal
CAKI-1 renal = system: CAKI-1 renal
KM12 colon = system: KM12 colon
M14 melanoma = system: M14 melanoma
NCI-H460 lung = system: NCI-H460 lung
OVCAR-3 ovarian = system: OVCAR-3 ovarian
OVCAR-4 ovarian = system: OVCAR-4 ovarian
SK-MEL-28 melanoma = system: SK-MEL-28 melanoma
SK-OV-3 ovarian = system: SK-OV-3 ovarian
UACC-257 melanoma = system: UACC-257 melanoma

| Compound | TGI (A498 renal) [µM] | TGI (CAKI-1 renal) [µM] | TGI (KM12 colon) [µM] | TGI (M14 melanoma) [µM] | TGI (NCI-H460 lung) [µM] | TGI (OVCAR-3 ovarian) | TGI (OVCAR-4 ovarian) | TGI (SK-MEL-28 melanoma) [µM] | TGI (SK-OV-3 ovarian) [µM] | TGI (UACC-257 melanoma) [µM] | GI50 (A498 renal) [µM] | GI50 (CAKI-1 renal) | GI50 (KM12 colon) | GI50 (M14 melanoma) [µM] | GI50 (NCI-H460 lung) | GI50 (OVCAR-3 ovarian) [µM] | GI50 (OVCAR-4 ovarian) | GI50 (SK-MEL-28 melanoma) [µM] | GI50 (SK-OV-3 ovarian) [µM] | GI50 (UACC-257 melanoma) |
| --- | --- | --- | --- | --- | --- | --- | --- | --- | --- | --- | --- | --- | --- | --- | --- | --- | --- | --- | --- | --- |
| CC1(C)CCC[C@@]2(C)C1C[C@H](O)[C@@]1(C)O[C@@](C)([C@H](O)CO)CCC21 (stereo not given in full) | 77.1 | > 100 | > 100 | > 100 | > 100 | > 100 µM | > 100 µM | > 100 | 79.4 | > 100 | – | – | – | – | – | – | – | – | – | – |
| Cc1onc(-c2c(F)cccc2Cl)c1-c1ncc(-c2ccc(Cl)cc2)o1 | > 100 | > 100 | > 100 | > 100 | > 100 | > 100 µM | > 100 µM | > 100 | > 100 | > 100 | 5.09 | 4.7 µM | 5.59 µM | 5.67 | 3.18 µM | 8.84 | 13.9 µM | 6.26 | 9.33 | 3.25 µM |
| Oc1c(C(Nc2cccc3ccccc23)c2ccccc2)ccc2cccnc12 (stereo not given) | 23.9 | 6.54 | > 100 | 8.48 | 18.5 | 19.1 µM | > 100 µM | > 100 | > 100 | 9.28 | 3.27 | 2.15 µM | 5.03 µM | 2.01 | 2.07 µM | 3.79 | 2.3 µM | 4.14 | 5.9 | 2.88 µM |
| COC(=O)CCC(C)[C@H]1CCC2C3C(C[C@H](OC(C)=O)[C@@]21C)[C@@]1(C)CCC2(C[C@H]1C[C@H]3OC(C)=O)OOC1(CCC(C)CC1)OO2 (stereo not given in full) | > 100 | > 100 | > 100 | > 100 | > 100 | > 100 µM and 72 µM | 49.5 µM and > 100 µM | > 100 | > 100 | > 100 | – | 5.26 µM and 15.8 µM | 4.03 µM and 38.7 µM | – | 4.22 µM and 18.7 µM | – | 3.75 µM and 18.2 µM | – | – | 8.83 µM and 25.2 µM |
| COc1cc(N2CCN(C(C)C)CC2)ccc1Nc1nc(Nc2cccc3ncccc23)c2cc[nH]c2n1 | 12 | > 25 | > 25 | 8.04 | > 23.5 | 10.6 µM | > 25 µM | 9.56 | 19.1 | 8.14 | 0.811 | 10 µM | 5.56 µM | 4.13 | 6.16 µM | 4.75 | 7.54 µM | 4.77 | 5.58 | 3.67 µM |

— PubChem BioAssay (NCI)
